Key:
[1] = dose of 1 g/kg; cited from earlier work
[2] = target: T1, recombinant human UCK2 (Homo sapiens, UniProt Q9BZX2); assay: In vitro enzyme activity assay with recombinant human UCK2 (PK/LDH-coupled, UV 340 nm); type: biochemical
T1 construct: 6xHis (C); made in house; host or cells: E. coli BL21(DE3)
T1 sequence (Q9BZX2 1-261): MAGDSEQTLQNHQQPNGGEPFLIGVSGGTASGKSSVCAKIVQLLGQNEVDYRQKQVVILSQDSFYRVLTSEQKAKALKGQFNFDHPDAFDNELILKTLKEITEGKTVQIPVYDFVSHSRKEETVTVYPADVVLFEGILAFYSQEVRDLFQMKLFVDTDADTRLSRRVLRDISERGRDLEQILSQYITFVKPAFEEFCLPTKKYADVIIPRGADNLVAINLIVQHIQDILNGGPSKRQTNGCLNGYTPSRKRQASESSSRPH
Excerpt: In order to guide our SAR studies, we developed an enzymatic assay to evaluate the inhibitory effect of each CPU analog against recombinant human UCK2, which was expressed and purified in E. coli. A continuous assay system was optimized by coupling UCK2 activity to the pyruvate kinase (PK) reaction, which in turn was coupled to lactate dehydrogenase (LDH). Overall reaction progress was continuously monitored by detecting the UV absorption change at 340 nm, which was correlated with the ATP consumption by UCK2. The effect of 250 μM of each CPU analog on UCK2 activity was evaluated in the presence of 50 μM uridine. […] We then individually measured the steady state kinetic parameters of UCK2 using uridine, CPU and 5-F-CPU as substrates. Their KM values were 86, 25, and 41 μM, and their kcat/KM values were 2.6×10^5, 1.5×10^5, and 7.3×10^4 s^−1 M^−1 (FIG. 5B).
Cloning, expression and purification of recombinant human UCK2 and CMPK1: Uridine cytidine kinase 2 (UCK2) was cloned into the pET-21a(+) vector using Ndel and Notl as restriction sites. […] The resulting plasmid was transformed into E. coli BL21(DE3) cells by electroporation, recovered in SOC at 37° C. for 1 h and plated onto LB agar plates with kanamycin overnight at 37° C. A single, isolated colony was inoculated into 30 mL LB supplemented with 50 μg/mL kanamycin and grown at 37° C. with shaking for 15 h. The next day, these cells were used to inoculate 1 L autoclaved LB with 50 μg/mL kanamycin. The flask was shaken at 37° C. When an optical density (OD600) of 0.7 was reached, protein expression was induced with 0.5 mM isopropyl β-D-1-thiogalactopyranoside (IPTG). The temperature was changed to 18° C. and flasks were shaken for an additional 15 h. The cell pellets were collected by spinning the media at 5000 rpm for 10 min. The pellets obtained were frozen by liquid nitrogen and stored in −80° C. for protein purification. Cell pellets were thawed and resuspended in lysis buffer containing Tris (40 mM, pH 7.5), NaCl (10 mM), imidazole (10 mM), DTT (1 mM). Cells were lysed by sonication and centrifuged at 25,000 g for 1 h. The supernatant was incubated with a slurry of Ni-NTA resin for 1 h at 4° C. and loaded onto a column. The nickel column wash buffer was Tris (40 mM, pH 7.5), NaCl (10 mM), DTT (1 mM) and each wash step contained increasing concentrations of imidazole (10, 50, or 250 mM). After SDS-PAGE confirmation of the protein fractions, protein was further purified using fast protein liquid chromatography (FPLC) using buffer A (50 mM Tris-HCl pH 8, 1 mM dithiothreitol (DTT), 10% glycerol) and elution buffer B (50 mM Tris-HCl pH 8, 1mM dithiothreitol (DTT), 10% glycerol with 500 mM NaCl) with changing gradient over a 20 minute from 2% to 100% Buffer B. FPLC eluents containing the protein was concentrated using Am icon centrifugal filter with 3K cut-off and the enzyme was stored in storage buffer (50 mM Tris-HCl pH 7.5, 10% glycerol). Human cytidine monophosphate kinase 1 (CMPK1) was purified as previously described (Deans et al., 2016).
In vitro enzyme activity assays with recombinant human UCK2: To continuously monitor reaction progress spectrophotometrically, ATP hydrolysis was coupled to NADH oxidation via pyruvate kinase (PK) and lactate dehydrogenase (LDH). Reactions were conducted at room temperature in 100 μL in 96-well plates (Greiner Bio-One, UV-Star, Half Area). Mixtures contained 20 mM HEPES (pH 7.2), 100 mM KCl, 2 mM MgCl2, 300 μM ATP, 0-500 μM uridine, 0-500 μM CPU analogs, 10 nM UCK2, 1 mM phosphoenolpyruvate, 500 μM NADH and 20 units/mL of PK and LDH. Progress was monitored in the linear region using a Biotek Synergy HT and kinetic and inhibition constants were determined using GraphPad Prism 7 (GraphPad Software).

SMILES: O=c1ccn([C@@H]2C=C(CO)[C@@H](O)[C@H]2O)c(=O)[nH]1 [CPU, 1-((1R,4R,5S)-4,5-dihydroxy-3-(hydroxymethyl)cyclopent-2-en-1-yl)pyrimidine-2,4(1H,3H)-dione]
- toxicity in mice [1]: does not show appreciable toxicity
- UCK2 substrate or not (ATP consumption) ([2]; 250 μM analog in the presence of 50 μM uridine): substrates of UCK2
- rate of UMP synthesis ([2]; added to assay mixture containing UCK2, uridine (50 μM) and ATP): dose-dependent decrease

From US20220280513A1, “ENHANCING THE ANTIVIRAL EFFICACY OF RNA VIRUS INHIBITION BY COMBINATION WITH MODULATORS OF PYRIMIDINE METABOLISM” (The Board of Trustees of the Leland Stanford Junior …, priority 2019, published 2022)
